Test results reported in paper PMC5513037, “Examining the influence of specificity ligands and ATP-competitive ligands on the overall effectiveness of bivalent kinase inhibitors” (Proteome Science, 2017).
Blank lines part the entries; values can stand above or below the molecule they belong to.

Assays:
Assay type in all cases: binding
VRK3 = molecular target: T1, VRK3 (Homo sapiens, UniProt Q8IV63); assay: Imatinib-matrix competition in K562 lysate; conditions: read-out: RB50 (the source's name)
T1 construct: endogenous in cells; host or cells: K562
From the text: (§1) Data were visualized for further analysis using Spotfire DXP.

TTN = molecular target: T2, TTN (Homo sapiens, UniProt Q8WZ42); assay: Imatinib-matrix competition in K562 lysate; conditions: read-out: RB50 (the source's name)
T2 construct: endogenous in cells; host or cells: K562
From the text: as §1

ATR = molecular target: T3, ATR (Homo sapiens, UniProt Q13535); assay: Imatinib-matrix competition in K562 lysate; conditions: read-out: RB50 (the source's name)
T3 construct: endogenous in cells; host or cells: K562
From the text: as §1

TKT = molecular target: T4, TKT (Homo sapiens, UniProt P29401); assay: Imatinib-matrix competition in K562 lysate; conditions: read-out: RB50 (the source's name)
T4 construct: endogenous in cells; host or cells: K562
From the text: as §1

SMG1 = molecular target: T5, SMG1 (Homo sapiens, UniProt Q96Q15); assay: Imatinib-matrix competition in K562 lysate; conditions: read-out: RB50 (the source's name)
T5 construct: endogenous in cells; host or cells: K562
From the text: as §1

NRK = molecular target: T6, NRK (Homo sapiens, UniProt Q7Z2Y5); assay: Imatinib-matrix competition in K562 lysate; conditions: read-out: RB50 (the source's name)
T6 construct: endogenous in cells; host or cells: K562
From the text: as §1

TRIM33 = molecular target: T7, TRIM33 (Homo sapiens, UniProt Q9UPN9); assay: Imatinib-matrix competition in K562 lysate; conditions: read-out: RB50 (the source's name)
T7 construct: endogenous in cells; host or cells: K562
T7 sequence (Q9UPN9 whole entry): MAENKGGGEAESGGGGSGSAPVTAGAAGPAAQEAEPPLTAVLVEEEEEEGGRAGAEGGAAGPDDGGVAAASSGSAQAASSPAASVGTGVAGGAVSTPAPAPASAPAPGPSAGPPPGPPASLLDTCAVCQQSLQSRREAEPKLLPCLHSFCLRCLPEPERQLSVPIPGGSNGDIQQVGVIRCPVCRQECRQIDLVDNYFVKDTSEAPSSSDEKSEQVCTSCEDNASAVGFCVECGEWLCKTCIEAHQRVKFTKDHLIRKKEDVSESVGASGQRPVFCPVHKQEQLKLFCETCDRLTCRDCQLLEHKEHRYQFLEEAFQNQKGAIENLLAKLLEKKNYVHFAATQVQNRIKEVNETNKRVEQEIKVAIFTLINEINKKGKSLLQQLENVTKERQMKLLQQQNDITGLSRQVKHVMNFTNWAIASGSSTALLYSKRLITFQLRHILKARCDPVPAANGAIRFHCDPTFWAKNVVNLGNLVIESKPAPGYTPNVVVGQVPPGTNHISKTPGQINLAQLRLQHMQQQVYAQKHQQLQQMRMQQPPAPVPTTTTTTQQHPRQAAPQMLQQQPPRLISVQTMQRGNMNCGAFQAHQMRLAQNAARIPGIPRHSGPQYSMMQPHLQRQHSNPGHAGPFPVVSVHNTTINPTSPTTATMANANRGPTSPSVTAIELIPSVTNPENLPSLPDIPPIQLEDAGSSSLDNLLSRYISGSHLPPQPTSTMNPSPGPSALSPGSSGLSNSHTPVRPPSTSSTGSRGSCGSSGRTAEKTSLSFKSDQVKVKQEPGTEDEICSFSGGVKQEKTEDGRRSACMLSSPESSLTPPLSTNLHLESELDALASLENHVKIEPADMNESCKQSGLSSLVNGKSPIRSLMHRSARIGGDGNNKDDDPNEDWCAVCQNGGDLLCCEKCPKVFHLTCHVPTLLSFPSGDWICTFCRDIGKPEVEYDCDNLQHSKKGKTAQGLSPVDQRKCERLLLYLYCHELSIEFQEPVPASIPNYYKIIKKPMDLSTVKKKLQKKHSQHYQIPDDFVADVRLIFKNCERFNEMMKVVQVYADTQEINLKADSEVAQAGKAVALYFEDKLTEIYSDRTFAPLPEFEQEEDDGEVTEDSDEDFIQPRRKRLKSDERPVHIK
From the text: as §1

TFG = molecular target: T8, TFG (Homo sapiens, UniProt Q92734); assay: Imatinib-matrix competition in K562 lysate; conditions: read-out: RB50 (the source's name)
T8 construct: endogenous in cells; host or cells: K562
T8 sequence (Q92734 whole entry): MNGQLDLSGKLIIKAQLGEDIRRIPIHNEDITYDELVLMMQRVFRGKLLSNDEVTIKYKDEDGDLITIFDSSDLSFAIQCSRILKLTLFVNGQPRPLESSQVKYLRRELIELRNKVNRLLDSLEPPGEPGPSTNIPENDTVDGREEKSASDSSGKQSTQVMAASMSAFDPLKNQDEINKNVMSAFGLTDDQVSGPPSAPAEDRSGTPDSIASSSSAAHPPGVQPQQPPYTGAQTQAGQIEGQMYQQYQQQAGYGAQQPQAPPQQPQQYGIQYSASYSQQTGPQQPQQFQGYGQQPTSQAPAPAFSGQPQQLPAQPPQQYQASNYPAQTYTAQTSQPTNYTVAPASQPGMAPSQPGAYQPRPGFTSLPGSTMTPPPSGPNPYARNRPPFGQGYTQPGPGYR
From the text: as §1

RPS6KB2 = molecular target: T9, RPS6KB2 (Homo sapiens, UniProt Q9UBS0); assay: Imatinib-matrix competition in K562 lysate; conditions: read-out: RB50 (the source's name)
T9 construct: endogenous in cells; host or cells: K562
From the text: as §1

PBK = molecular target: T10, PBK (Homo sapiens, UniProt Q96KB5); assay: Imatinib-matrix competition in K562 lysate; conditions: read-out: RB50 (the source's name)
T10 construct: endogenous in cells; host or cells: K562
T10 sequence (Q96KB5 1-322): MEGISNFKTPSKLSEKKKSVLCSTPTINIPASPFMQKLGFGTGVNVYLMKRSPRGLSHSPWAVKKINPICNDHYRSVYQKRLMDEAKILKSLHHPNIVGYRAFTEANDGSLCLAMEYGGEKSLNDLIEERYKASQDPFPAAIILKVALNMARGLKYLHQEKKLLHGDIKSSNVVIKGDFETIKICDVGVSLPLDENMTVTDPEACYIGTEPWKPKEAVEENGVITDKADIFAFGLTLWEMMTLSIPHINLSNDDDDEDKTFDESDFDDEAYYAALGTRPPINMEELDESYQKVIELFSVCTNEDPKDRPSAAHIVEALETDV
From the text: as §1

SPEG = molecular target: T11, SPEG (Homo sapiens, UniProt Q15772); assay: Imatinib-matrix competition in K562 lysate; conditions: read-out: RB50 (the source's name)
T11 construct: endogenous in cells; host or cells: K562
From the text: as §1

VRK1 = molecular target: T12, VRK1 (Homo sapiens, UniProt Q99986); assay: Imatinib-matrix competition in K562 lysate; conditions: read-out: RB50 (the source's name)
T12 construct: endogenous in cells; host or cells: K562
T12 sequence (Q99986 1-396): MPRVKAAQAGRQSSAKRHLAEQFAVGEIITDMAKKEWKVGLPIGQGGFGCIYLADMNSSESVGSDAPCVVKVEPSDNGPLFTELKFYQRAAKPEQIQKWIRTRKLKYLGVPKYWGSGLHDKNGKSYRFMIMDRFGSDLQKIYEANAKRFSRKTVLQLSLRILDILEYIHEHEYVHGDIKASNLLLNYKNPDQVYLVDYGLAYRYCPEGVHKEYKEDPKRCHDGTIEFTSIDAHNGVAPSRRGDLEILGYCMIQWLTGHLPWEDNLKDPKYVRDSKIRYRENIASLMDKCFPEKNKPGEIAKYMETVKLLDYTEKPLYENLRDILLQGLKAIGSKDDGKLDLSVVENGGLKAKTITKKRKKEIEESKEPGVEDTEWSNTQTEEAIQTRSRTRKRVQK
From the text: as §1

SRM = molecular target: T13, SRM (Homo sapiens, UniProt P19623); assay: Imatinib-matrix competition in K562 lysate; conditions: read-out: RB50 (the source's name)
T13 construct: K562 lysate (5 mg per treatment) was preincubated; endogenous in cells; host or cells: K562 lysate
T13 sequence (P19623 whole entry): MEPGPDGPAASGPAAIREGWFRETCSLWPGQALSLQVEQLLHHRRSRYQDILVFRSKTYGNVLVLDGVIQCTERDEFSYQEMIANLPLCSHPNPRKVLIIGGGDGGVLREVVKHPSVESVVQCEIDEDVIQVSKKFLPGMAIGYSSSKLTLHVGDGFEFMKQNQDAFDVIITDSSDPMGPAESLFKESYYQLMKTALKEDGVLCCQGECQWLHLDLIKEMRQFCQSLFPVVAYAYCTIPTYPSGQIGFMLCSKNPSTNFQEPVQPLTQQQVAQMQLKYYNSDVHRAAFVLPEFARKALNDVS
From the text: as §1

PRKDC = molecular target: T14, PRKDC (Homo sapiens, UniProt P78527); assay: Imatinib-matrix competition in K562 lysate; conditions: read-out: RB50 (the source's name)
T14 construct: endogenous in cells; host or cells: K562
From the text: as §1

TRRAP = molecular target: T15, TRRAP (Homo sapiens, UniProt Q9Y4A5); assay: Imatinib-matrix competition in K562 lysate; conditions: read-out: RB50 (the source's name)
T15 construct: endogenous in cells; host or cells: K562
From the text: as §1

RP1 = molecular target: T16, RP1 (Homo sapiens, UniProt P56715); assay: Imatinib-matrix competition in K562 lysate; conditions: read-out: RB50 (the source's name)
T16 construct: endogenous in cells; host or cells: K562
From the text: as §1

ATM = ATM (Homo sapiens, UniProt Q13315); assay: KAM-matrix competition in K562 lysate; design: endogenous in cells; host or cells: K562;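 on 0.001 uM KAM: median log10 fold change of treatment over DMSO control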;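 on 0.01 uM KAM: median log10 fold change of treatment over DMSO control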;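 on 0.1 uM KAM: median log10 fold change of treatment over DMSO control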;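 on 1 uM KAM: median log10 fold change of treatment over DMSO control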;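 on 10 uM KAM: median log10 fold change of treatment over DMSO control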
Chain of ATM (Q13315 whole entry): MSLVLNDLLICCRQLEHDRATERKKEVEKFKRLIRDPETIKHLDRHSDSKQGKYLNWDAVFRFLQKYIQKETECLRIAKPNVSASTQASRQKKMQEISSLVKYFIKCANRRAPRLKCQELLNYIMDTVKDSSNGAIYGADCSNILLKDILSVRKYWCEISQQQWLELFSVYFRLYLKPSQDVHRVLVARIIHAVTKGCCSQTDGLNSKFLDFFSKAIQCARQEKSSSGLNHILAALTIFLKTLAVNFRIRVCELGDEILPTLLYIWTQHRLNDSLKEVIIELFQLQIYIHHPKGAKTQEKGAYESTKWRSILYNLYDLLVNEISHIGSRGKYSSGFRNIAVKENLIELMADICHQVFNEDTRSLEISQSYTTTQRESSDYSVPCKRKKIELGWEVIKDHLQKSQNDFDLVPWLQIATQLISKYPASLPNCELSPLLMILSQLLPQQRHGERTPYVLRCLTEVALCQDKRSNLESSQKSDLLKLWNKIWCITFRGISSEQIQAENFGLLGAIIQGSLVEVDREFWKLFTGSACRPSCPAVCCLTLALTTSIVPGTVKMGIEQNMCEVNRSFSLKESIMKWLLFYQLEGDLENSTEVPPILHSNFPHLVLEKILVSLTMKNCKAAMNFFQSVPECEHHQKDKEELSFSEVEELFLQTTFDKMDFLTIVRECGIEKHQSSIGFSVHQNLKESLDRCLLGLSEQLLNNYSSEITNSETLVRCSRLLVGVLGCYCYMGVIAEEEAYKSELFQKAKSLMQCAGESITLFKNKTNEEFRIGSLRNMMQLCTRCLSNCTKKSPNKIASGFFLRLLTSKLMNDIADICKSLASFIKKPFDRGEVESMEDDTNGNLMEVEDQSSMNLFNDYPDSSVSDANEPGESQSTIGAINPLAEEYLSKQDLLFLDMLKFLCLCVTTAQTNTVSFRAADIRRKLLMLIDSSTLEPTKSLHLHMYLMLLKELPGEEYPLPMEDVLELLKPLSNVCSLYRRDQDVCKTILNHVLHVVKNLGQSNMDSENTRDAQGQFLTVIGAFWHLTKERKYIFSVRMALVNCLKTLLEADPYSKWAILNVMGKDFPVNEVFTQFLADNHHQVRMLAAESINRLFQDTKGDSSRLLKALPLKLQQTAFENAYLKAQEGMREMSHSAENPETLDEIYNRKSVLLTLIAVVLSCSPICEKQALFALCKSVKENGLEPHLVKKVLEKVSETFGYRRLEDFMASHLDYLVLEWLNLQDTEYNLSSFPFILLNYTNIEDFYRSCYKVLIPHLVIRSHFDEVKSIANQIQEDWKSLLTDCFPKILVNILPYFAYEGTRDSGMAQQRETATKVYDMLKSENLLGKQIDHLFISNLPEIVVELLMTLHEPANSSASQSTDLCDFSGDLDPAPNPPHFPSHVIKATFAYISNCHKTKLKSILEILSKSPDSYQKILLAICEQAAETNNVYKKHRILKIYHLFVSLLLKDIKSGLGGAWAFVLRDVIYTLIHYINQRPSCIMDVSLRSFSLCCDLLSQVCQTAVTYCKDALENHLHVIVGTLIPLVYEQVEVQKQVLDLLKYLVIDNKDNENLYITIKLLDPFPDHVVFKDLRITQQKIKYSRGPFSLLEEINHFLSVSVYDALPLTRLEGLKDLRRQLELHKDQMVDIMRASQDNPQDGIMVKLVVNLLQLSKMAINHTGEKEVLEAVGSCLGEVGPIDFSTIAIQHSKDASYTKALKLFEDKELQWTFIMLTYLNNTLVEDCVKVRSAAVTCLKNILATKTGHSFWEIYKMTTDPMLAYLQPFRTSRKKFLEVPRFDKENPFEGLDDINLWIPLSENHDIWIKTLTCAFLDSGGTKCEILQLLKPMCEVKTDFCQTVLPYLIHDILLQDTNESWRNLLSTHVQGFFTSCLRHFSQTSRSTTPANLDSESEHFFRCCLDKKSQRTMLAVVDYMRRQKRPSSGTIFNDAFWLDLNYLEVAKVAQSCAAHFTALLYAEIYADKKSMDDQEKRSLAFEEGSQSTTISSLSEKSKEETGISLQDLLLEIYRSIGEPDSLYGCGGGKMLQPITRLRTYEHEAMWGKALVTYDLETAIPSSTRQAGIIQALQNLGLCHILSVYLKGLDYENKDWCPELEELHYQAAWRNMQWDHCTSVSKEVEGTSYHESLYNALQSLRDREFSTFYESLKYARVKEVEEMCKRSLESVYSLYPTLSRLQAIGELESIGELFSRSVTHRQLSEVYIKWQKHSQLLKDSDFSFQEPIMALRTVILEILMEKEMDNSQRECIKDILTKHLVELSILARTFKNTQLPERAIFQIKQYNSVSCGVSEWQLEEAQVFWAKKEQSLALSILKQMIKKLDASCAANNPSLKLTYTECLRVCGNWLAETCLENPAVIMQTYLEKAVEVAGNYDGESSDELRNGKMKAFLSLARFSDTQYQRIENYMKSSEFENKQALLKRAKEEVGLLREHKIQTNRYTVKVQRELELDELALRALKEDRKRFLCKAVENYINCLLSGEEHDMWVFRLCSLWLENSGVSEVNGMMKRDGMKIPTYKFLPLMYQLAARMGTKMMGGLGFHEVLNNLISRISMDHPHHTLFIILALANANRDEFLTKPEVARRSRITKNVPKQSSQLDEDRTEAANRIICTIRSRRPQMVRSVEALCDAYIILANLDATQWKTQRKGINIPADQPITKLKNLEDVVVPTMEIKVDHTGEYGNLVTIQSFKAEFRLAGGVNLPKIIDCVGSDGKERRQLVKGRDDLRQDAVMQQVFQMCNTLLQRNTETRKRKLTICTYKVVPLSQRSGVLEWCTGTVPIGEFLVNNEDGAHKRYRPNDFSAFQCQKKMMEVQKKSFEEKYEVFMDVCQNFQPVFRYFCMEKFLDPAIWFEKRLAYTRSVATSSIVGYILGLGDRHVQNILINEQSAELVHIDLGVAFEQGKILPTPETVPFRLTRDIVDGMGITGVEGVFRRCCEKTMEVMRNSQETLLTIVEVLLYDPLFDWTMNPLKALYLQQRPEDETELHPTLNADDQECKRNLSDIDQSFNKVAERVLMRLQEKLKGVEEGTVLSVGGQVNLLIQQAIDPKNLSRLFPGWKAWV
Method: (§2) Supplement 12953_2017_125_MOESM1_ESM.zip/MS_Supp Info.xlsx, sheet "KAM" | column: 10 uM KAM; 1 uM KAM; 0.1 uM KAM; 0.01 uM KAM; 0.001 uM KAM; RB50

SCYL1 = molecular target: T17, SCYL1 (Homo sapiens, UniProt Q96KG9); assay: KAM-matrix competition in K562 lysate; design: endogenous in cells; host or cells: K562;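 on 0.001 uM KAM: median log10 fold change of treatment over DMSO control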;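 on 0.01 uM KAM: median log10 fold change of treatment over DMSO control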;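 on 0.1 uM KAM: median log10 fold change of treatment over DMSO control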;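 on 1 uM KAM: median log10 fold change of treatment over DMSO control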;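 on 10 uM KAM: median log10 fold change of treatment over DMSO control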
T17 sequence (Q96KG9 1-808): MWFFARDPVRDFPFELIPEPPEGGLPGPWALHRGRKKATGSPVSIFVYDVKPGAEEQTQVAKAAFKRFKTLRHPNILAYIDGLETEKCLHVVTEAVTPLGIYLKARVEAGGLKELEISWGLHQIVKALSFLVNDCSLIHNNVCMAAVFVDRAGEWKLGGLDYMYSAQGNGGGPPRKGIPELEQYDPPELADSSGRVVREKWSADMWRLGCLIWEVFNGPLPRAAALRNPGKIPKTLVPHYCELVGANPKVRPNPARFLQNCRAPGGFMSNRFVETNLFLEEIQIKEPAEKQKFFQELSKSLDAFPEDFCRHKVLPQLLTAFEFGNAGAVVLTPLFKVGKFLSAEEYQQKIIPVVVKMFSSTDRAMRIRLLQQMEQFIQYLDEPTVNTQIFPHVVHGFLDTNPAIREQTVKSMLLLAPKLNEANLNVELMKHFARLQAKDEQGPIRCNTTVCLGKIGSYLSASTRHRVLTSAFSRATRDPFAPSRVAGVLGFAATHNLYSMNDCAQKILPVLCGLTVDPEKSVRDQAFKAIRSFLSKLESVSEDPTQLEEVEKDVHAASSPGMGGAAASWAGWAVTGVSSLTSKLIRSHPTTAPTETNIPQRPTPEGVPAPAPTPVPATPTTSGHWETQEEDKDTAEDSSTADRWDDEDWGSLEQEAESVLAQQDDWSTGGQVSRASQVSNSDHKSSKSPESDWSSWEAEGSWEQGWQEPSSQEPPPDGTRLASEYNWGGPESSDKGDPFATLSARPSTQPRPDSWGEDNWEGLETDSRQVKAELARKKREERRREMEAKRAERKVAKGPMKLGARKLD
Method: as §2

[1] = KAM 0.001-10 uM, read-out: RB50 (the source's name)

- IC50 (VRK3): > 10 µM
- IC50 (TTN): > 10 µM
- IC50 (ATR): > 10 µM
- IC50 (TKT): > 10 µM
- IC50 (SMG1): > 10 µM
- IC50 (NRK): > 10 µM
- IC50 (TRIM33): > 10 µM
- IC50 (TFG): > 10 µM
- IC50 (RPS6KB2): > 10 µM
- IC50 (PBK): > 10 µM
- IC50 (SPEG): > 10 µM
- IC50 (VRK1): > 10 µM
- IC50 (SRM): > 10 µM
- IC50 (PRKDC): > 10 µM
- IC50 (TRRAP): > 10 µM
- IC50 (RP1): > 10 µM
Compound: Cc1ccc(NC(=O)c2ccc(CN3CCN(C)CC3)cc2)cc1Nc1nccc(-c2cccnc2)n1 [Imatinib]

Compound: N#CCc1ccc(Nc2nc(NCCCN)cc(Nc3cc(C4CC4)[nH]n3)n2)cc1 [KAM]
- IC50 (ATM; [1]): > 10 µM
- 0.001 uM KAM (ATM; relative to 0 uM KAM = 0): -0.06745
- 0.01 uM KAM (ATM; relative to 0 uM KAM = 0): -0.02165
- 0.1 uM KAM (ATM; relative to 0 uM KAM = 0): -0.03764
- 1 uM KAM (ATM; relative to 0 uM KAM = 0): -0.07001
- 10 uM KAM (ATM; relative to 0 uM KAM = 0): 0.01755
- IC50 (SCYL1; [1]): > 10 µM
- 0.001 uM KAM (SCYL1; relative to 0 uM KAM = 0): 0.01527
- 0.01 uM KAM (SCYL1; relative to 0 uM KAM = 0): 0.01732
- 0.1 uM KAM (SCYL1; relative to 0 uM KAM = 0): 0.09163
- 1 uM KAM (SCYL1; relative to 0 uM KAM = 0): 0.1255
- 10 uM KAM (SCYL1; relative to 0 uM KAM = 0): 0.1065
